US5753648A, “Tricyclic benzazepine vasopressin antagonists” (American Cyanamid Company, priority 1996, dated 1998)

What was measured:
oxytocin receptors = molecular target: T1, oxytocin receptors (Rattus norvegicus, UniProt P70536); assay: Oxytocin Receptor Binding; conditions: for IC50: rat uterine membranes, [3H]oxytocin
T1 sequence (P70536 1-388): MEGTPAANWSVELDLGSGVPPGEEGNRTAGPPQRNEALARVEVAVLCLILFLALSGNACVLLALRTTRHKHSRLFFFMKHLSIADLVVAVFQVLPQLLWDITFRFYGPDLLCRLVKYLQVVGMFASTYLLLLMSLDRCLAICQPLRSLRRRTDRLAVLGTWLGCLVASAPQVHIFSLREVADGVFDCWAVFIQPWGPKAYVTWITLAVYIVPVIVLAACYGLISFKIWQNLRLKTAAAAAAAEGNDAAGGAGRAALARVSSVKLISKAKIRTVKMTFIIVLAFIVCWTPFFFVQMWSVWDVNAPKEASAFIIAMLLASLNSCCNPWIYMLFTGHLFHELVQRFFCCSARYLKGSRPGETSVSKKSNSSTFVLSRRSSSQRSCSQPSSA

[1] = molecular target: T2, Rat Kidney Medullary V2 Receptors (Rattus norvegicus, UniProt Q00788); assay: biochemical; assay type: binding
T2 construct: Medullary tissues from rat kidneys are dissected out; from tissue; host or cells: rat kidney medulla membranes
Procedure: Binding Assay to Rat Kidney Medullary V2 Receptors
Medullary tissues from rat kidneys are dissected out, cut into small pieces and soaked in a […] sodium chloride solution containing 1.0 mM EDTA with many changes of the liquid phase, until the solution is clear of blood. The tissue is homogenized in a 0.25M sucrose solution containing 1.0 mM EDTA and 0.1 mM PMSF using a Potter-Elvehjem homogenizer with a teflon pestle. The homogenate is filtered through several layers (4 layers) of cheese cloth. The filtrate is rehomogenized using a dounce homogenizer, with a tight fitting pestle. The final homogenate is centrifuged at 1500×g for 15 min. The nuclear pellet is discarded and the supernatant fluid recentrifuged at 40,000×g for 30 min. The resulting pellet formed contains a dark inner part with the exterior, slightly pink. The pink outer part is suspended in a small amount of 50.0 mM Tris.HCl buffer, pH 7.4. The protein content is determined by the Lowry's method (Lowry et al, J. Biol. Chem., 1953). The membrane suspension is stored at -70° C., in 50.0 mM Tris.HCl, containing 0.2% inactivated BSA and 0.1 mM PMSF in aliquots of 1.0 ml containing 10.0 mg protein per ml of suspension until use in subsequent binding experiments.
For binding experiments, the following is added in μl volume to wells of a 96 well format of a microtiter plate: 100.0 μl of 100.0 mM Tris.HCl buffer containing 0.2% heat inactivated BSA, 10.0 mM MgCl2 and a mixture of protease inhibitors: leupeptin, 1.0 mg %; aprotinin, 1.0 mg %; 1,10-phenanthroline, 2.0 mg %; trypsin inhibitor, 10.0 mg % and 0.1 mM PMSF, 20.0 μl of [^3 H] Arginine^8, vasopressin (S.A. 75.0 Ci/mmole) at 0.8 nM and the reaction initiated by the addition of 80.0 μl of tissue membranes (200.0 μg tissue protein). The plates are left undisturbed on the bench top for 120 min. to reach equilibrium. Non-specific binding is assessed in the presence of 1.0 μM of unlabeled ligand, added in 20 μl volume. For test compounds, these are solubilized in 50% dimethylsulfoxide (DMSO) and added in 20.0 μl volume to a final incubation volume of 200 μl. Upon completion of binding, the content of each well is filtered off, using a Brandel® cell Harvester (Gaithersburg, Md.). The radioactivity trapped on the filter disk by the ligand-receptor complex is assessed by liquid scintillation counting in a Packard LS Counter, with an efficiency of 65% for tritium. The data are analyzed for IC50 values by the LUNDON-2 program for competition (LUNDON SOFTWARE, Ohio).

T2 sequence (Q00788 whole entry): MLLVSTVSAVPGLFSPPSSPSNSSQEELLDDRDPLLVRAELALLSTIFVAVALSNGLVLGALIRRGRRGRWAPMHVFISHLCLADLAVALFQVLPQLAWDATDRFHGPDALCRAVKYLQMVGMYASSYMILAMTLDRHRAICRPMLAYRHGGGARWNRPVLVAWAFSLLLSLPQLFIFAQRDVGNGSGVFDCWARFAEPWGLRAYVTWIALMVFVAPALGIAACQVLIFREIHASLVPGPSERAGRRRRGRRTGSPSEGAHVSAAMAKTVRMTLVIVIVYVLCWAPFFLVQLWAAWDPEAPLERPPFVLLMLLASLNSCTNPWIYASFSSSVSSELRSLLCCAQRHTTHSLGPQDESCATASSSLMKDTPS

inhibition at 10 µM (oxytocin receptors)	inhibition at 10 µM [1]	inhibition at 1 µM [1]	IC50 (oxytocin receptors)	further results	SMILES
66%	58%	–	–	–	O=C(Nc1ccc(C(=O)N2Cc3cccn3Cc3ccccc32)cn1)c1ccc(F)cc1F [Example 7]
–	–	95%	–	–	O=C(Nc1ccc(C(=O)N2Cc3cccn3Cc3ccccc32)cn1)c1ccccc1-c1ccccc1 [Example 10]
–	–	93%	–	–	O=C(Nc1ccc(C(=O)N2Cc3cccn3Cc3ccccc32)cn1)c1cc(Br)ccc1Cl [Example 11]
96%	–	99%	580 nM	–	O=C(Nc1ccc(C(=O)N2Cc3cccn3Cc3ccccc32)cn1)c1cc(Cl)ccc1Cl [Example 14]
–	–	94%	310 nM	inhibition at 5 µM (oxytocin receptors; dose 5 μM): 97%	O=C(Nc1ccc(C(=O)N2Cc3cccn3Cc3ccccc32)cn1)c1c(F)cccc1Cl [Example 18]
99%	–	–	920 nM	–	O=C(Nc1ccc(C(=O)N2Cc3cccn3Cc3ccccc32)cn1)c1ccccc1[N+](=O)[O-] [Example 43]
–	–	–	–	inhibition at 1 µM (oxytocin receptors): 8%	Cc1ccc(F)cc1C(=O)Nc1ccc(C(=O)N2Cc3ccc(CN(C)C)n3Cc3ccccc32)cn1 [Example 120, N-[5-[[3-[(Dimethylamino)methyl]-[5H-pyrrolo[2,1-c][1,4]benzodiazepin-10(11H)]-yl]carbonyl]-2-pyridinyl]-5-fluoro-2-methylbenzamide]
57%	92%	–	–	–	Cc1ccc(F)cc1C(=O)N(CCN(C)C)c1ccc(C(=O)N2Cc3cccn3Cc3ccccc32)cn1 [Example 130, N-[2-(Dimethylamino)ethyl]-N-[5-(5H-pyrrolo[2,1-c][1,4]benzodiazepin-10(11H)-ylcarbonyl)-2-pyridinyl]-5-fluoro-2-methylbenzamide]
60%	–	82%	–	–	Cc1ccc(F)cc1C(=O)N(CCCN(C)C)c1ccc(C(=O)N2Cc3cccn3Cc3ccccc32)cn1 [Example 131, N-[3-(Dimethylamino)propyl]-N-[5-(5H-pyrrolo[2,1-c][1,4]benzodiazepin-10(11H)-ylcarbonyl)-2-pyridinyl]-5-fluoro-2-methylbenzamide]
–	94%	–	–	inhibition at 1 µM (oxytocin receptors): 63%	Cc1ccc(F)cc1C(=O)Nc1ccc(C(=O)N2Cc3cccn3-c3ncccc32)cn1 [Example 134, N-[5-(Pyrido[3,2-e]pyrrolo[1,2-a]pyrazin-5(6H)-ylcarbonyl)-2-pyridinyl]-5-fluoro-2-methylbenzamide]
73%	–	–	1100 nM	–	Cc1ccc(F)cc1C(=O)Nc1ccc(C(=O)N2Cc3cccn3-c3ccccc32)cn1 [Example 171, N-[5-(Pyrrolo[1,2-a]quinoxalin-5(4H)-ylcarbonyl)-2-pyridinyl]-5-fluoro-2-methylbenzamide]
–	55%	32%	150 nM	–	CC(C)CNc1ccc(C(=O)N2Cc3cccn3Cc3ccccc32)cn1 [Example 261, 10-[[6-[(2-Methylpropyl)amino]-3-pyridinyl]carbonyl]-10,11-dihydro-5H-pyrrolo[2,1-c][1,4]benzodiazepine]
76%	–	50%	1600 nM	–	CC(C)(C)CCNc1ccc(C(=O)N2Cc3cccn3Cc3ccccc32)cn1 [Example 262]
–	97%	–	–	–	Cc1ccccc1CNc1ccc(C(=O)N2Cc3cccn3Cc3ccccc32)cn1 [Example 274]
94%	54%	–	1360 nM	–	O=C(c1ccc(SC2CCCCC2)nc1)N1Cc2cccn2Cc2ccccc21 [Example 288, 10,11-Dihydro-10-[[6-(cyclohexylthio)-3-pyridinyl]carbonyl]-5H-pyrrolo-[2,1-c][1,4]benzodiazepine]
–	–	–	3800 nM	inhibition at 1 µM (oxytocin receptors): 58%	CCCCOc1ccc(C(=O)N2Cc3cc(CO)nn3Cc3ccccc32)cc1 [Example 344, 5,10-Dihydro-2-hydroxymethyl-5-(4-(4-butyloxy)benzoyl)-4H-pyrazolo[5,1-c][1,4]benzodiazepine]
